Where a SMILES comes first, the peptide text is derived from it. Where no end group is shown, it is not given here. [ ]: non-standard residue; d: D form. Phe(4-CF3) = N[C@@H](Cc1ccc(C(F)(F)F)cc1)C(=O)O; Phe(3-Cl) = N[C@@H](Cc1cccc(Cl)c1)C(=O)O; Phe(4-Cl) = N[C@@H](Cc1ccc(Cl)cc1)C(=O)O; Phe(4-F) = N[C@@H](Cc1ccc(F)cc1)C(=O)O; NMeF = CN[C@@H](Cc1ccccc1)C(=O)O; NMeI = CC[C@H](C)[C@H](NC)C(=O)O; β3hI = CC[C@H](C)[C@H](N)CC(=O)O; 3Pal = N[C@@H](Cc1cccnc1)C(=O)O; Tic = O=C(O)[C@@H]1Cc2ccccc2CN1; β3hF = N[C@H](CC(=O)O)Cc1ccccc1; NMeD = CN[C@@H](CC(=O)O)C(=O)O; Tle = CC(C)(C)[C@H](N)C(=O)O; β3hD = NC(CC(=O)O)CC(=O)O; Aib = CC(C)(N)C(=O)O
Experiments:
RecO = molecular target: T1, RecO (Escherichia coli, UniProt P0A7H3); assay: biochemical; assay type: binding; conditions: 0.5 μM RecO, 50 nM F-wtSSB tracer, 0–500 μM unlabeled peptide, 30 min room temperature; 20 mM Tris-HCl pH 8.0, 200 mM NaCl, 10% glycerol, 0.01% Triton-X 100; 25 °C; triplicate; read-out: IC50 on RecO, competitive fluorescence anisotropy
T1 construct: His-tag (TEV site) (N, cleaved yes); made in house; host or cells: E. coli Rosetta cells
T1 sequence (P0A7H3 whole entry): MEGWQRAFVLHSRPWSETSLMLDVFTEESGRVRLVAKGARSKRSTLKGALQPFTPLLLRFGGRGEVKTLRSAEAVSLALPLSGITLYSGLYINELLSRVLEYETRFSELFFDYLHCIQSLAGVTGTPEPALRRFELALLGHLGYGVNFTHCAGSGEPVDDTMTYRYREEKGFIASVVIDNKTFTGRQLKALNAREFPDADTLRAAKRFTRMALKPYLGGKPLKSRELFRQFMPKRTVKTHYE
Procedure: (§1) Triplicate measurements were performed using a Clariostar Plus Microplate Reader in 384-well plates for all fluorescence anisotropy (FA) experiments. The settings were 25 °C, excitation at 485 nm, emission at 510 nm, settling time of 0.2 s, and 200 flashes per well.
(§2) Competition fluorescence anisotropy experiments were carried out as follows: protein (0.5 μM either ExoI or RecO) was incubated with 50 nM F-wtSSB peptide and 0–500 μM unlabeled wtSSB (or a variant) peptide for 30 min at room temperature. For direct fluorescence anisotropy measurements, 16 µM ExoI and 7.5 µM RecO were used in the first well. After serial dilution, either 50 nM of F-mSSB or F-sSSB was added to the wells and then incubated for 30 min. Buffers used included 20 mM Tris-HCl (pH 8.0), 100 mM NaCl, 1 mM MgCl2, 1 mM 2-mercaptoethanol, 10% (v/v) glycerol, for ExoI and 20 mM Tris-HCl (pH 8.0), 200 mM NaCl, 1 mM 2-mercaptoethanol, 10% (v/v) glycerol, and 0.01% Triton-X 100 for RecO [37].
(§3) Fluorescence anisotropy values were normalized and are shown as bound fractions (BF, %). BF=r−rmin/λ(rmax−r)+r−rmin, I=2∗PG+S, r=S−PG/I, where r: anisotropy, I: total intensity, P: perpendicular intensity, S: parallel intensity, G: an instrument factor set to 1, BF: ligand fraction bound, and λ=λbound/λunbound=1 .
(§4) Competitive fluorescence anisotropy was analyzed in Origin Pro 9.5, and IC50 values were determined using the Logistic Nonlinear fit function and are shown as plots for each mutated position for each protein in Figures S4 and S6. EC50 values from direct fluorescence anisotropy titrations were plotted in Origin 9.5. Values were determined using the Logistics Nonlinear fit function.

ExoI = molecular target: T2, ExoI (Escherichia coli, UniProt P04995); assay: biochemical; assay type: binding, E. coli
T2 construct: His-tag (cleaved yes); host or cells: E. coli BL21 (DE3) pLysS
T2 sequence (P04995 whole entry): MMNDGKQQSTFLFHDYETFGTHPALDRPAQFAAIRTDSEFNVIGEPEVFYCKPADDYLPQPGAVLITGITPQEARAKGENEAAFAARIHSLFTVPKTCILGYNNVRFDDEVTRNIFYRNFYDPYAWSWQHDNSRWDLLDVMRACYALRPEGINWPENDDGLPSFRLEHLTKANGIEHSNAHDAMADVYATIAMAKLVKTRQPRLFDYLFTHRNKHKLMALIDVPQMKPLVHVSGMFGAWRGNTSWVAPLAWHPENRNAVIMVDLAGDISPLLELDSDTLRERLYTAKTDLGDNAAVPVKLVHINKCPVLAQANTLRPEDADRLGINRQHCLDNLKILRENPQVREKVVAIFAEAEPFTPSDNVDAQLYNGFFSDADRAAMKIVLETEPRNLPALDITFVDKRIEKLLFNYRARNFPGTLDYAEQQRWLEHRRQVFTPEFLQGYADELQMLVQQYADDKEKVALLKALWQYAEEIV
Procedure: as §1, §2, §3, §4

| Compound | IC50 (RecO) [µM] | IC50 (ExoI) [µM] |
| --- | --- | --- |
| CC[C@H](C)[C@H](NC(=O)[C@H](CC(=O)O)NC(=O)[C@H](CC(=O)O)NC(=O)[C@H](CC(=O)O)NC(=O)[C@H](Cc1ccccc1)NC(=O)C[C@H](CC(=O)O)NC(C)=O)C(=O)N1CCC[C@H]1C(=O)N[C@@H](Cc1ccccc1)C(=O)O [β3-Asp1] (Ac-[β3hD]FDDDIPF-OH) | 8.03 ± 0.4 | 4.47 ± 0.25 |
| CC[C@H](C)[C@H](NC(=O)[C@H](CC(=O)O)NC(=O)[C@H](CC(=O)O)NC(=O)[C@H](CC(=O)O)NC(=O)[C@H](Cc1ccc(F)cc1)NC(=O)[C@H](CC(=O)O)NC(C)=O)C(=O)N1CCC[C@H]1C(=O)N[C@@H](Cc1ccccc1)C(=O)O [4-F-Phe2] (Ac-D[Phe(4-F)]DDDIPF-OH) | 3.05 ± 0.28 | – |
| CC[C@H](C)[C@H](NC(=O)[C@H](CC(=O)O)NC(=O)[C@H](CC(=O)O)NC(=O)[C@H](CC(=O)O)NC(=O)[C@H](Cc1cccnc1)NC(=O)[C@H](CC(=O)O)NC(C)=O)C(=O)N1CCC[C@H]1C(=O)N[C@@H](Cc1ccccc1)C(=O)O [3Pal2] (Ac-D[3Pal]DDDIPF-OH) | 11.7 ± 0.8 | 7.47 ± 0.88 |
| CC[C@H](C)[C@@H](C(=O)N1CCC[C@H]1C(=O)N[C@@H](Cc1ccccc1)C(=O)O)N(C)C(=O)[C@H](CC(=O)O)NC(=O)[C@H](CC(=O)O)NC(=O)[C@H](CC(=O)O)NC(=O)[C@H](Cc1ccccc1)NC(=O)[C@H](CC(=O)O)NC(C)=O [NM-Ile6] (Ac-DFDDD[NMeI]PF-OH) | – | 3.95 ± 0.54 |
| CC(=O)N[C@@H](CC(=O)O)C(=O)N[C@@H](Cc1ccccc1)C(=O)N[C@@H](CC(=O)O)C(=O)N[C@@H](CC(=O)O)C(=O)N[C@@H](CC(=O)O)C(=O)N[C@H](C(=O)N1CCC[C@H]1C(=O)N[C@@H](Cc1ccccc1)C(=O)O)C(C)(C)C [tBuGly6] (Ac-DFDDD[Tle]PF-OH) | 10.4 ± 1.02 | 2.87 ± 0.26 |
| CC[C@H](C)[C@H](NC(=O)[C@H](CC(=O)O)NC(=O)[C@H](CC(=O)O)NC(=O)[C@H](CC(=O)O)NC(=O)[C@@H]1Cc2ccccc2CN1C(=O)[C@H](CC(=O)O)NC(C)=O)C(=O)N1CCC[C@H]1C(=O)N[C@@H](Cc1ccccc1)C(=O)O [Tic2] (Ac-D[Tic]DDDIPF-OH) | 3.99 ± 0.1 | 6.6 ± 0.55 |
| Ac-DFEDDIPF [Glu3] | 5.81 ± 1.65 | 4.03 ± 0.24 |
| Ac-NFDDDIPF [Asn1] | 13.8 ± 17.2 | 9.31 ± 0.4 |
| Ac-DFDNDIPF [Asn4] | 15.7 ± 3.54 | 6.02 ± 0.3 |
| CC[C@H](C)[C@H](NC(=O)[C@H](CC(=O)O)NC(=O)[C@H](CC(=O)O)NC(=O)[C@H](CC(=O)O)NC(=O)C[C@H](Cc1ccccc1)NC(=O)[C@H](CC(=O)O)NC(C)=O)C(=O)N1CCC[C@H]1C(=O)N[C@@H](Cc1ccccc1)C(=O)O [β3-Phe2] (Ac-D[β3hF]DDDIPF-OH) | 3.66 ± 0.61 | 3.8 ± 0.11 |
| Ac-DFNDDIPF [Asn3] | 14.2 ± 1.8 | 6.36 ± 0.36 |
| CC[C@H](C)[C@H](NC(=O)[C@H](CC(=O)O)NC(=O)[C@H](CC(=O)O)NC(=O)[C@H](CC(=O)O)NC(=O)[C@H](Cc1ccccc1)NC(=O)[C@H](CC(=O)O)N(C)C(C)=O)C(=O)N1CCC[C@H]1C(=O)N[C@@H](Cc1ccccc1)C(=O)O [NM-Asp1] (Ac-[NMeD]FDDDIPF-OH) | 5.1 ± 0.64 | 2.17 ± 0.15 |
| CC[C@H](C)[C@H](NC(=O)[C@H](CC(=O)O)N(C)C(=O)[C@H](CC(=O)O)NC(=O)[C@H](CC(=O)O)NC(=O)[C@H](Cc1ccccc1)NC(=O)[C@H](CC(=O)O)NC(C)=O)C(=O)N1CCC[C@H]1C(=O)N[C@@H](Cc1ccccc1)C(=O)O [NM-Asp5] (Ac-DFDD[NMeD]IPF-OH) | 9.33 ± 4.3 | 9.3 ± 0.66 |
| Ac-EFDDDIPF [Glu1] | 5.17 ± 1.1 | 1.33 ± 0.09 |
| CC[C@H](C)[C@H](NC(=O)[C@H](CC(=O)O)NC(=O)C[C@H](CC(=O)O)NC(=O)[C@H](CC(=O)O)NC(=O)[C@H](Cc1ccccc1)NC(=O)[C@H](CC(=O)O)NC(C)=O)C(=O)N1CCC[C@H]1C(=O)N[C@@H](Cc1ccccc1)C(=O)O [β3-Asp4] (Ac-DFD[β3hD]DIPF-OH) | 19.6 ± 2.78 | 1.54 ± 0.13 |
| CC[C@H](C)[C@H](NC(=O)[C@H](CC(=O)O)NC(=O)[C@H](CC(=O)O)NC(=O)[C@H](CC(=O)O)NC(=O)[C@H](Cc1ccccc1)NC(=O)[C@H](CC(=O)O)NC(C)=O)C(=O)N1CCC[C@H]1C(=O)N[C@@H](Cc1cccnc1)C(=O)O [3Pal8] (Ac-DFDDDIP[3Pal]-OH) | 31.9 ± 4.16 | 19.9 ± 2.81 |
| CC[C@H](C)[C@H](NC(=O)C[C@H](CC(=O)O)NC(=O)[C@H](CC(=O)O)NC(=O)[C@H](CC(=O)O)NC(=O)[C@H](Cc1ccccc1)NC(=O)[C@H](CC(=O)O)NC(C)=O)C(=O)N1CCC[C@H]1C(=O)N[C@@H](Cc1ccccc1)C(=O)O [β3-Asp5] (Ac-DFDD[β3hD]IPF-OH) | 5.91 ± 0.68 | 13.9 ± 6.11 |
| Ac-DFDDNIPF [Asn5] | 16 ± 0.51 | 7.92 ± 0.62 |
| CC[C@H](C)[C@H](NC(=O)[C@H](CC(=O)O)NC(=O)[C@H](CC(=O)O)NC(=O)[C@H](CC(=O)O)NC(=O)[C@H](Cc1ccccc1)NC(=O)[C@H](CC(=O)O)NC(C)=O)C(=O)N1CCC[C@@H]1C(=O)N[C@@H](Cc1ccccc1)C(=O)O [D-Pro7] (Ac-DFDDDI[dP]F-OH) | 11.6 ± 10.9 | 61.5 ± 16.2 |
| CC(=O)N[C@@H](CC(=O)O)C(=O)N[C@@H](Cc1ccc(Cl)cc1)C(=O)N(C)[C@@H](CC(=O)O)C(=O)N[C@@H](CC(=O)O)C(=O)N[C@@H](CCC(=O)O)C(=O)N[C@@H](CC(C)C)C(=O)N1CCC[C@H]1C(=O)N[C@@H](Cc1cccc(Cl)c1)C(=O)O [R1-sSSB-Ct] (Ac-D[Phe(4-Cl)][NMeD]DELP[Phe(3-Cl)]-OH) | 3.33 | – |
| Ac-DFDEDIPF [Glu4] | 5.68 ± 0.59 | 3.58 ± 0.11 |
| CC[C@H](C)[C@H](NC(=O)[C@H](CC(=O)O)NC(=O)[C@H](CC(=O)O)NC(=O)[C@H](CC(=O)O)NC(=O)[C@H](Cc1ccccc1)NC(=O)[C@H](CC(=O)O)NC(C)=O)C(=O)N1CCC[C@H]1C(=O)N[C@@H](Cc1ccc(F)cc1)C(=O)O [4-F-Phe8] (Ac-DFDDDIP[Phe(4-F)]-OH) | 4.07 ± 7.98 | 3.04 ± 0.64 |
| CC[C@H](C)[C@H](NC(=O)[C@H](CC(=O)O)NC(=O)[C@H](CC(=O)O)NC(=O)[C@H](CC(=O)O)NC(=O)[C@H](Cc1ccc(Cl)cc1)NC(=O)[C@H](CC(=O)O)NC(C)=O)C(=O)N1CCC[C@H]1C(=O)N[C@@H](Cc1ccccc1)C(=O)O [4-Cl-Phe2] (Ac-D[Phe(4-Cl)]DDDIPF-OH) | 2.38 ± 0.27 | – |
| CC[C@@H](C)[C@@H](NC(=O)[C@H](CC(=O)O)NC(=O)[C@H](CC(=O)O)NC(=O)[C@H](CC(=O)O)NC(=O)[C@H](Cc1ccccc1)NC(=O)[C@H](CC(=O)O)NC(C)=O)C(=O)N1CCC[C@H]1C(=O)N[C@@H](Cc1ccccc1)C(=O)O [D-Ile6] (Ac-DFDDD[dI]PF-OH) | – | 56 ± 18.4 |
| CC[C@H](C)[C@@H](CC(=O)N1CCC[C@H]1C(=O)N[C@@H](Cc1ccccc1)C(=O)O)NC(=O)[C@H](CC(=O)O)NC(=O)[C@H](CC(=O)O)NC(=O)[C@H](CC(=O)O)NC(=O)[C@H](Cc1ccccc1)NC(=O)[C@H](CC(=O)O)NC(C)=O [β3-Ile6] (Ac-DFDDD[β3hI]PF-OH) | 19.2 ± 7.47 | 11.28 ± 0.03 |
| CC[C@H](C)[C@H](NC(=O)[C@H](CC(=O)O)NC(=O)[C@H](CC(=O)O)NC(=O)[C@H](CC(=O)O)NC(=O)[C@H](Cc1ccc(C(F)(F)F)cc1)NC(=O)[C@H](CC(=O)O)NC(C)=O)C(=O)N1CCC[C@H]1C(=O)N[C@@H](Cc1ccccc1)C(=O)O [4-CF3-Phe2] (Ac-D[Phe(4-CF3)]DDDIPF-OH) | 3.27 ± 0.42 | – |
| CC(=O)N[C@@H](CC(=O)O)C(=O)N[C@@H](Cc1ccccc1)C(=O)N[C@@H](CC(=O)O)C(=O)N[C@@H](CC(=O)O)C(=O)N[C@@H](CC(=O)O)C(=O)NC(C)(C)C(=O)N1CCC[C@H]1C(=O)N[C@@H](Cc1ccccc1)C(=O)O [Aib6] (Ac-DFDDD[Aib]PF-OH) | – | 27.6 ± 7.9 |
| CC[C@H](C)[C@H](NC(=O)[C@H](CC(=O)O)NC(=O)[C@H](CC(=O)O)NC(=O)[C@H](CC(=O)O)NC(=O)[C@H](Cc1ccccc1)NC(=O)[C@H](CC(=O)O)NC(C)=O)C(=O)N1CCC[C@H]1C(=O)N(C)[C@@H](Cc1ccccc1)C(=O)O [NM-Phe8] (Ac-DFDDDIP[NMeF]-OH) | 64.7 ± 18.9 | – |
